Legend:
Format in all cases: cell-based
HCT116 A2.1 cells [1] = assay: EGFP-based mutation rate / replication fidelity assay (Example 3)
Method: A EGFP-based assay to determine the changes in mutation rate upon incubation with various concentrations of the compounds was used to test whether compounds improve the replication fidelity. Briefly, 1×10^3 EGFP negative HCT116 A2.1 cells were sorted into 24-well plates on a FACS Aria. 24 hours later cells were treated with the compounds for a period of 7 days and the mutant fraction was measured by flow cytometry.

HCT116 cells = assay: Cell cycle analysis by BrdU staining, HCT116; conditions: 10 mM-40 mM; 72 hour treatment
Method: BrdU staining was used to analyze cell cycle changes in HCT116 and HT29 cells upon 72 hour treatment with compound 39. Data represent the mean values of 3 independent experiments (* indicates a p<0.05 compared to control)

HCT116 A2.1 cells [2] = assay: EGFP-based mutation rate assay at a (CA)13 repeat (Example 4); conditions: FIG. 4
Method: A EGFP-based assay similar to Example 3 was used to determine the changes in mutation rate upon incubation with various concentrations of disclosed compounds and to test whether the compounds improve the replication fidelity. A EGFP based assay was used to determine the changes in mutation rate at a (CA)13 repeat upon incubation with various concentrations of the compounds. Briefly, 1×10^3 EGFP negative HCT116 A2.1 cells were sorted into 24-well plates on a FACS Aria. 24 hours later cells were treated with the compounds for a period of 7 days. The total cell number (c) and the EGFP-positive fraction (mutant fraction (MF)) were analyzed by flow cytometry. The mutation rate (m/(CA)13/generation (gen) was estimated by m=MF/(gen+1) and gen=log 2(c/1000×cloning efficiency). The transient mutant (M1) and definitive mutant (M2) cells were distinguished.

[3] = tested on: superoxide (O2−) released by activated neutrophils (PMN); assay: Superoxide scavenging, O2− assay with PMA-activated neutrophils, 90 min time course (Example 2); conditions: at the investigated concentrations; 100 nM PMA; measured every 15 min for 90 min; FIG. 2A/2B
Method: Compounds 14 and 34 were tested for their potential to scavenge superoxide (O2^−) released by activated neutrophils (PMN) using a standardized O2^− assay, similar to Example 1. Activated neutrophils (PMN) were used as O2^− donors. Briefly, 1×10^6 freshly isolated neutrophils were activated with 100 nM phorbol-myristate-acetate (PMA). The O2^− release was measured every 15 min for a 90 min period by lucigenin amplified chemiluminescence on a luminometer. Either non-activated PMNs or activated PMNs incubated with superoxide dismutase (2000 U/ml, SOD) was used as a control. Experiments were carried out in triplicates

## CCOC(Cc1ccc(N)cc1)C(=O)O (racemic) [compound 39, (±)-2-ethoxy-3-(4′-aminophenyl) propionic acid]
HCT116 A2.1 cells [1]; 20 mM, 7 days
  cell growth (in words): reduced cell growth
HCT116 A2.1 cells [1]; 20 mM, FIG. 3C, comparable to the effect of aspirin
  effect on M1 (in words): increase of M1
HCT116 A2.1 cells [1]; 7 days, FIG. 3C
  effect on mutant fraction M1 or M2 (in words): did not reduce the mutant fraction M1 or M2
HCT116 cells
  cell cycle distribution (in words): did not induce a significant change
HCT116 A2.1 cells [2]; 10 mM up to 40 mM, p<0.05
  number of M1 (transient mutant) cells (in words): significantly lowered the number of M1 cells
HCT116 A2.1 cells [2]; 40 mM
  permanent mutant M2 population (in words): significant reduction

## COc1ccc(N)cc1C(=O)NO [compound 14]
[3]
  superoxide scavenging properties (in words): significant scavenging properties

## CC1(C)OC(=O)c2cc(N)ccc2O1 [compound 28]
HCT116 A2.1 cells [1]; concentrations up to 1 mM, FIG. 3B
  changes in mutation rate (in words): does not appear to cause significant changes
